Patent EP3227262B1, “SULFIDE ALKYL AND PYRIDYL REVERSE SULFONAMIDE COMPOUNDS FOR HBV TREATMENT” (Novira Therapeutics Inc., priority 2014, dated 2016)

What was measured:
[1] = system: HBV; assay: Inhibition of HBV replication dot-blot assay in HBV-producing hepatoma cell line; assay type: cell-based; settings: Hepatitis B virus, 144 h; activity in Dot-Blot assay; HepG2-2.2.15 cells; reduction in HBV DNA levels, six days
How it was run: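 HepG2-2.2.15 confluent monolayers were exposed to a compound dilution series for six days, with medium and compound renewed at day 3. HBV DNA in supernatant/lysate was quantified by dot-blot hybridization, and EC50 was derived from dose-response reduction in HBV DNA.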

[2] = system: HBV; assay: HBV replication inhibition assay (encapsidated HBV DNA in supernatant, bDNA QuantiGene); assay type: cell-based; settings: Hepatitis B virus, 144 h, HepG2.2.15 cells, supernatant at day 6, read-out: Extra HBV DNA

| Structure (SMILES) | EC50 [1] [nM] | EC50 [2] [nM] |
| --- | --- | --- |
| CS(=O)(=O)NC(=O)C1C2CC(Sc3cc(C(=O)Nc4cc(F)c(F)c(F)c4)ccc3F)CC21 (mixture of isomers) [Compound 99, (cis/trans)-3-((2-Fluoro-5-((3,4,5-trifluorophenyl)carbamoyl)phenyl)thio)-N-(methylsulfonyl)bicyclo[3.1.0]hexane-6-carboxamide] | < 10000 | 4000 |
| CC(O)CCSc1cc(C(=O)Nc2cc(F)c(F)c(F)c2)ccc1F (racemic) [Compound 18, (±)-4-Fluoro-3-((3-hydroxybutyl)thio)-N-(3,4,5-trifluorophenyl)benzamide] | < 10000 | 570 |
| O=C(Nc1ccc(F)c(Cl)c1)c1ccnc(NS(=O)(=O)C2CCC(O)C2)c1 (racemic) [Compound 186, (±)-N-(3-Chloro-4-fluorophenyl)-2-(3-hydroxycyclopentanesulfonamido)isonicotinamide] | < 10000 | 2700 |
| O=C(Nc1cc(F)c(F)c(F)c1)c1ccc(F)c(SC2CCCCC2)c1 [Compound 2, 3-(Cyclohexylthio)-4-fluoro-N-(3,4,5-trifluorophenyl)benzamide] | < 10000 | 138 |
| O=C(Nc1cc(F)c(F)c(F)c1)c1ccc(F)c(SC2CCOCC2)c1 [Compound 4, 4-Fluoro-3-((tetrahydro-2H-pyran-4-yl)thio)-N-(3,4,5-trifluorophenyl)benzamide] | < 10000 | 220 |
| O=C(Nc1ccc(F)c(Cl)c1)c1ccc(F)c(SCC2(CCO)CC2)c1 [Compound 32, N-(3-Chloro-4-fluorophenyl)-4-fluoro-3-(((1-(2-hydroxyethyl)cyclopropyl)methyl)thio)benzamide] | < 10000 | 410 |
| O=C(Nc1cc(F)c(F)c(F)c1)c1ccc(F)c(SCC2(CCO)CC2)c1 [Compound 33, 4-Fluoro-3-(((1-(2-hydroxyethyl)cyclopropyl)methyl)thio)-N-(3,4,5-trifluorophenyl)benzamide] | < 10000 | 620 |
| O=C(Nc1ccc(F)c(Cl)c1)c1cccc(SC2CCCCC2)c1 [Compound 35, N-(3-Chloro-4-fluorophenyl)-3-(cyclohexylthio)benzamide] | < 10000 | 1210 |
| O=C(Nc1ccc(F)c(Cl)c1)c1cccc(SCCO)c1 [Compound 36, N-(3-Chloro-4-fluorophenyl)-3-((2-hydroxyethyl)thio)benzamide] | < 10000 | 1340 |
| O=C(Nc1ccc(F)c(Cl)c1)c1cccc(SC2CCCC2)c1 [Compound 37, N-(3-Chloro-4-fluorophenyl)-3-(cyclopentylthio)benzamide] | < 10000 | 1070 |
| CS(=O)(=O)NC(=O)[C@H]1CC[C@@H](Sc2cc(C(=O)Nc3cc(F)c(F)c(F)c3)ccc2F)CC1 [Compound 100, 4-Fluoro-3-(((1S,4S)-4-((methylsulfonyl)carbamoyl)cyclohexyl)thio)-N-(3,4,5-trifluorophenyl)benzamide] | < 10000 | 1700 |
| O=C(Nc1ccc(F)c(Cl)c1)c1cccc(NS(=O)(=O)C2CC2)n1 [Compound 123, N-(3-Chloro-4-fluorophenyl)-6-(cyclopropanesulfonamido)picolinamide] | < 10000 | 3000 |
| O=C(Nc1ccc(F)c(Cl)c1)c1ccnc(NS(=O)(=O)C2CC2)c1 [Compound 124, N-(3-Chloro-4-fluorophenyl)-2-(cyclopropanesulfonamido)isonicotinamide] | < 10000 | 100 |
| O=C(Nc1ccc(F)c(Cl)c1)c1cncc(NS(=O)(=O)C2CC2)c1 [Compound 125, N-(3-Chloro-4-fluorophenyl)-5-(cyclopropanesulfonamido)nicotinamide] | < 10000 | 2100 |
| CCc1ccc(CS(=O)(=O)Nc2cc(C(=O)Nc3ccc(F)c(Cl)c3)ccn2)cc1 [Compound 180, N-(3-Chloro-4-fluorophenyl)-2-((4-ethylphenyl)methylsulfonamido)isonicotinamide] | < 10000 | 300 |
| CCc1ccc(CS(=O)(=O)Nc2cc(C(=O)Nc3ccc(F)c(F)c3)ccn2)cc1 [Compound 181, N-(3,4-Difluorophenyl)-2-((4-ethylphenyl)methylsulfonamido)isonicotinamide] | < 10000 | 700 |
